What was measured:
F508del CFTR = F508del CFTR (Homo sapiens, UniProt P13569, DEL508-508); experiment: CSE-HRP assay (cell surface expression horseradish peroxidase assay); assay type: cell-based; design: University of North Carolina; host or cells: primary human bronchial epithelial cells, F508del/F508del donors; details: 24 h treatment; for % F508del PM Expression vs control: VX809 rescue = 100%
Method: CFBE41o^- TetON cells expressing HRP tagged F508del-CFTR ([Veit et al., 2012]) were seeded at a density of 2000 cells per well in white 384-well plates (Greiner). Medium containing 500 ng/ml doxycycline was used to induce expression of the F508del-CFTR–HRP construct. After 3 days, cells were treated with corrector and/or potentiator compounds and transferred to an incubator at 33°C. On day 4, cells were washed five times with PBS containing Ca^2+ and Mg^2+ using a Bio-Tek plate washer and incubated with a chemiluminescent HRP substrate (SuperSignal West Pico Chemiluminescent Substrate, Thermo Scientific) for 15 min. Chemiluminescence was measured using an Envision plate reader (Perkin Elmer).
To discover novel correctors several high throughput screening campaigns were performed using cell based assays measuring plasma membrane expression of the F508del CFTR protein. The CSE-HRP system used CFBE41O-cells, a lung epithelial cell line, stably transfected with F508del CFTR tagged with HRP in the fourth extracellular loop ([Veit et al., 2014]). The CSE-MEM system, used U2OS cells, an osteosarcoma epithelial cell line, stably transfected with F508del CFTR tagged with a Pro-link moiety at the C-terminal and a plasma membrane located EA (enzyme acceptor) moiety. The latter cells were created by DiscoverX and the assay further optimized to allow robust evaluation in a high throughput manner.
For screening, cells were pre-incubated with compound for 24 h prior to read-out to allow sufficient time for de novo synthesis, and cellular trafficking of F508del-CFTR to reach steady state levels at the plasma membrane. A diverse set of 105,000 small molecules was screened in both cell assays in presence and absence of a fixed concentration (3 μM) of VX809. For the identification of suitable starting points we primarily focused on hits that increased the F508del CFTR surface expression under all conditions as exemplified by compound HIT1.

[1] = design: method as in Brearley et al., 2017; details: healthy volunteers; ref Brearley et al., 2017; cited from earlier work
wild type CFTR = wild type CFTR (Homo sapiens, UniProt P13569); experiment: CFTR activity in normal HBE cells (NHBE); assay type: cell-based; design: University of North Carolina; host or cells: primary normal human bronchial epithelial cells; details: forskolin 0.1 or 0.3 μM, potentiator GLPG2451 10 μM added afterwards
Method: Bronchial epithelial cells isolated from transplanted lungs from normal (wt CFTR) or CF patients homozygous for the F508del CFTR mutation, were obtained from McGill University (Montreal, QC, Canada) and University of North Carolina (Chapel Hill, NC, United States). Cells were isolated from lungs obtained from donors undergoing a planned transplantation. These primary cells were cultured directly on type IV collagen-coated polycarbonate Transwell supports with a diameter of 6.5 mm and pore size of 0.4 μm (Costar, #3397) for 18–25 days in air liquid (ali) interface essentially as previously described ([Fulcher et al., 2005]) for TECC. A similar cell culture protocol was used for Ussing chambers but using type IV collagen-coated polycarbonate Millicell supports with a diameter of 12 mm and a pore size of […] (Millicell, PIHP01250).
Corrector and/or potentiator compound(s) were added on the basolateral side of the HBEs for 24 h to rescue F508del CFTR. […] The transepithelial potential (PD) and transepithelial resistance (Rt) were measured in an open circuit and transformed to Ieq using Ohm’s law. […]
FIGURE 6 Effects of GLPG2737 on normal human bronchial epithelial cells (NHBE) and HEK cells expressing WT CFTR. […] (D) NHBE treated for 24 h with 1 μM GLPG2737 or DMSO (control), CFTR channel was activated with either 0.1 μM or 0.3μM forskolin, measured Isc shown in gray. […]

F508del CFTR, sequence (P13569 with tags, fused parts or gaps DEL508-508): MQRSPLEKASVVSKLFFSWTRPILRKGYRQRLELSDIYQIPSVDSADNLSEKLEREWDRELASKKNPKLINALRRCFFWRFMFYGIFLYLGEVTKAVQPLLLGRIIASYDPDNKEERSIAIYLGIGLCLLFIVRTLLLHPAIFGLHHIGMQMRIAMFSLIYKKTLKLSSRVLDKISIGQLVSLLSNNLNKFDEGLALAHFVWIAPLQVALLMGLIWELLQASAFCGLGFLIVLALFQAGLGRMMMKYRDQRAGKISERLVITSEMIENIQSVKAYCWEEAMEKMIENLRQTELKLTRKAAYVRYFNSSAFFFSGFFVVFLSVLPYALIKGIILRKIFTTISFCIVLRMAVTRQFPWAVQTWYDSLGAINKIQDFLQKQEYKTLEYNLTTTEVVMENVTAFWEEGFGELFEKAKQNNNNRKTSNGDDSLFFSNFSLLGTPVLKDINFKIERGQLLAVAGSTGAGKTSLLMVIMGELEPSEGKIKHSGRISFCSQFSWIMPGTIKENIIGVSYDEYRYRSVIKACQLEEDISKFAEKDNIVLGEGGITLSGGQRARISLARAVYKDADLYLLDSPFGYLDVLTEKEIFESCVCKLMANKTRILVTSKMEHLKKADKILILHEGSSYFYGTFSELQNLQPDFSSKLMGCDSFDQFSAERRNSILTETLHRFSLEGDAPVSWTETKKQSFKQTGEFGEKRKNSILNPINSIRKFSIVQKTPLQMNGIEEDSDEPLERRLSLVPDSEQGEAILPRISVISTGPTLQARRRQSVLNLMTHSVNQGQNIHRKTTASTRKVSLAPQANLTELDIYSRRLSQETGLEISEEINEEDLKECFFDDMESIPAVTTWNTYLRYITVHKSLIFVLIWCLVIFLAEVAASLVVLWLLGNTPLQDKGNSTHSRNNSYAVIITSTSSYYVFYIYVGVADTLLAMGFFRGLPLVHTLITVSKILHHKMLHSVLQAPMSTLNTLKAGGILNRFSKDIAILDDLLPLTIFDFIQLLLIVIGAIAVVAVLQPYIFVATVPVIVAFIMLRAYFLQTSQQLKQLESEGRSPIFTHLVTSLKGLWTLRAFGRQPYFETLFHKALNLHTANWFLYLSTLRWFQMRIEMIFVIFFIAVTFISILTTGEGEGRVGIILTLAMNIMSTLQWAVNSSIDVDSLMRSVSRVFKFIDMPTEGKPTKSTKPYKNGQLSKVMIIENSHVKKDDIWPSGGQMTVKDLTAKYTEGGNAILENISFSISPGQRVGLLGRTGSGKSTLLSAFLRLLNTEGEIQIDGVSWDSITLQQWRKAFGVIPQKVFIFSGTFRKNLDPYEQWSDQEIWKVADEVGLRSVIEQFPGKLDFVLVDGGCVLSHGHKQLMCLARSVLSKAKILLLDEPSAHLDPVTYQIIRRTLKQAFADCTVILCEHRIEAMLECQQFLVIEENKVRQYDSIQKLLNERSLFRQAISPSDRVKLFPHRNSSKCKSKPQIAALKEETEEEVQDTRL
wild type CFTR, sequence (P13569 whole entry): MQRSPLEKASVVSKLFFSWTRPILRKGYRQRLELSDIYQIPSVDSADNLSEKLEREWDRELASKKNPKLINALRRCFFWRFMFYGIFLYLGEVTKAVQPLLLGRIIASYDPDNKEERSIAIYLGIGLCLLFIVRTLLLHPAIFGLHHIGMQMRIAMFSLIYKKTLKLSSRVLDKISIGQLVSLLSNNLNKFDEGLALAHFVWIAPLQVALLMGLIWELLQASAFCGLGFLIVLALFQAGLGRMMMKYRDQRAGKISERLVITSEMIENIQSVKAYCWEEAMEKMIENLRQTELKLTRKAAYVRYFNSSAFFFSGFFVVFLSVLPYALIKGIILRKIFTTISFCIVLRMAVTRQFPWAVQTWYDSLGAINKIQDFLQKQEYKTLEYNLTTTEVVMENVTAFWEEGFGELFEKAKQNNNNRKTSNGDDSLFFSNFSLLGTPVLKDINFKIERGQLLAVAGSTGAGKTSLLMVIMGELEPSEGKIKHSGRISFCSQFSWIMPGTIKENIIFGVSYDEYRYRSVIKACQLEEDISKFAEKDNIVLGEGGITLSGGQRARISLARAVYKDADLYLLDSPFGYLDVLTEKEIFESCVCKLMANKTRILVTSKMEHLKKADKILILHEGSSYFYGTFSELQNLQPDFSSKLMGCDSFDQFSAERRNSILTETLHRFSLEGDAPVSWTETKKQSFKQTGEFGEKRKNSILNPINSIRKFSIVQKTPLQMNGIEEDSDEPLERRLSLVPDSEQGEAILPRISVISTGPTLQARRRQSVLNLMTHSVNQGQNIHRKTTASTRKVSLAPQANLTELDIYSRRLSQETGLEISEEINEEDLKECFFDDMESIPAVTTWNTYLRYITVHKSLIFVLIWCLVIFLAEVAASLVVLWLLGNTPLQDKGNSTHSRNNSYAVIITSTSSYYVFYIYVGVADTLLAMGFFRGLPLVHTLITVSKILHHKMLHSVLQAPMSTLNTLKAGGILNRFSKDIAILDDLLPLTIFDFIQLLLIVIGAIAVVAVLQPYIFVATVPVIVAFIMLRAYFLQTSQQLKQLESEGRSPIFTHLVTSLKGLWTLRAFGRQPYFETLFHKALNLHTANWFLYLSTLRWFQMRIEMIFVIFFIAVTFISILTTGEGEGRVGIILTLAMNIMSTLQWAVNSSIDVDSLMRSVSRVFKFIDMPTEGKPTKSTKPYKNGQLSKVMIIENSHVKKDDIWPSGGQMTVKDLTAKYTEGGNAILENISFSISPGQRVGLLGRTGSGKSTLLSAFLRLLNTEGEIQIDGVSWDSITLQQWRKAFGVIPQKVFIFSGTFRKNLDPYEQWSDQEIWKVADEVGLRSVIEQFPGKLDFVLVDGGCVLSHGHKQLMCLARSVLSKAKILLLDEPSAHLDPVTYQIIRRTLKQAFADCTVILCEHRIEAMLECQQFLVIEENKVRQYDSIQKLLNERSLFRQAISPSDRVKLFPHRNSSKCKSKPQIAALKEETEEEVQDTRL

- % F508del PM Expression vs control (F508del CFTR; + 3 μM VX809): 416%
- EC50 (F508del CFTR; no co-corrector): 809 nM
- % F508del PM Expression vs control (F508del CFTR; no co-corrector): 264%
Compound: COC1CCN(C2CCN(c3cc(C(=O)NS(=O)(=O)N(C)C)nc4c3c(C3CCC3)nn4-c3ccc(F)cc3)CC2)CC1 [GLPG2737]
- observed exposure in humans [1]: dose linear
- CFTR activity (wild type CFTR): reduced CFTR activity which could be rescued upon addition of a potentiator
